Data reported in patent publication US20250340846A1, “PATIENT-DERIVED CELL-CONTAINING DROPLETS ENABLE CLINICAL PRECISION ONCOLOGY” (Xilis, Inc., priority 2022, published 2025).

Columns and labels:
[1] = test system: MOS from metastatic rectal cancer biopsy; test: High-throughput drug screen on patient-derived MOS, CellTiter-Glo viability; type: cell-based, human; conditions: 1 μM, 72 hours, 30 tumor cells per MOS
Protocol: (§1) Drug High-Throughput Screening: Automated liquid handling was provided by the Echo Acoustic Dispenser (Labcyte) for drug administration or Well mate (Thermo Fisher) for cell plating, and assays were performed using a Clariosean plate reader (BMG Labtech). Immediately prior to cell plating, 384 well plates were stamped with 119 FDA-approved drug compounds at a final concentration of 1 μM. The compound library (Approved Oncology Set VI) was provided by the NCI Developmental Therapeutics Program (https://dtp.cancer.gov/). MOS were plated in these drug pre-coated plates at 100 MOS/well with each MOS containing 30 cells/droplet. Cell viabilities were assessed via CellTiter-Glo Luminescent Cell Viability Assay (Promega, USA) 72 hours after cell plating. Percent cytotoxicity was quantified using the following formula: 100*[1-(average CellTiterGlo^drug/average CellTiterGlo^control)].
Since clinical treatment decisions are often made within 10-14 days of diagnosis, an ideal diagnostic assay would give results within 14 days and use minimal tissue (e.g., core biopsies) to predict clinical outcome. In an initial study, a biopsy was obtained from a patient presenting with metastatic rectal cancer, and MOS (30 tumor cells per MOS) were established within 8 days of biopsy. […]

[2] = test system: MOS generated from NSCLC patient samples; test: IO assay, Incucyte Annexin V, MOS with tumor-resident immune cells; type: cell-based, human; conditions: 10 μg/mL, day 4 MOS, 30 tumor cells per MOS
Protocol: (§2) IO assay and Incucyte live cell imaging: MOS generated from primary tumor tissue were plated into 96-well plates with a density of 30-50 MOS per well supplied with culture medium without Y compound. Day 3 or day 4 MOS were treated with ESK1*, DP47 or Nivolumab for at least 3 days and imaged in Incucyte during the treatment. When performing immune cell potency assay, pre-activated PBMCs or matched TILs were stained with Cytolight Rapid red dye following manufacturer instructions. Briefly, Cytolight Rapid Red dye in one vial was diluted with 20 μl DMSO and further diluted 10-fold in PBS. PBMC or TILs were incubated at 37° C. with 5 μl diluted Cytolight Red dye (500X) in PBS for 25 minutes. After one wash with PBS, PBMC or TILs were counted and resuspended into wells containing MOS and culture medium at an effector: target ratio of 5:1 or 10:1. Annexin V green dye, Caspase 3/7 green dye, or Cytotox green dye was added into each well following manufacturer instruction. Plates were loaded into Incucyte S3 and images were taken every 2 hours for 4-5 days.
(§3) MOS generated from NSCLC patient samples at a density of 30 tumor cells per MOS formed tumorsphere-like structures in the presence of tumor-resident immune cells. MOS (day 4) were then treated with anti-PD1 therapy nivolumab at 10 μg/mL and Annexin V was used to evaluate cell apoptosis. […]

lung tumor MOS = test: IO assay with immunotherapy and MHC block, matched TILs; type: cell-based, human
Protocol: IO assay with immunotherapy and MHC block: Lung tumor MOS were incubated with anti-MHC I/II antibodies (W6/32; Tu39, Cat #361702, Biolegend) at a concentration of 20 μg/mL for 45 minutes at 37° C. before seeding into a 96-well plate at a density of 30-50 MOS per well supplied with lung tumor culture medium without Y-27632. Non-MHC-blocked MOS were used as controls. Matched TILs were added to each well at a 5:1 effector: target ratio. Nivolumab was added to wells at a working concentration of 10 μg/mL. The CD2/CD3/CD28 T cell activator reagent was added at a working concentration of 25 μl/mL. Annexin V was added into each well following the manufacturer's instructions.
Adjunctive therapies were explored by first combining PD-1 blockade (nivolumab) with autologous TILs against matched lung tumor MOS. […] TCB were then combined with autologous TILs or allogeneic PBMCs to treat lung cancer MOS (20 cells per MOS) expressing HLA-A2. ESK1* enhanced both TIL- and PBMC-induced tumor cell death compared to DP47 (FIGS. 11I, 11J, 12J, and 12K). Annexin V signals were higher in MOS treated with ESK1* vs. DP47 in all seven lung cancer samples (FIG. 11K). […] Heterogeneity in drug response between MOS from the same patient was observed and quantified (FIGS. 12K and 12L).

[3] = test system: MOS derived from a kidney cancer patient; test: IO assay, Incucyte Annexin V, kidney tumor MOS; type: cell-based, human; conditions: nivolumab alone, day 3 MOS
Protocol: as §2, §3

metastatic CRC = test: Clinical outcome of patients on oxaliplatin-based therapy (CT scan, time on treatment); type: in vivo, human
Description: All eight patients received oxaliplatin-based therapy per usual treatment guidelines. Patient outcomes were subsequently evaluated by CT scan before and after oxaliplatin treatment (FIGS. 2B-2H), and time-on-treatment was compared to MOS oxaliplatin sensitivity.

[4] = test system: metastatic CRC patient-derived MOS; test: Oxaliplatin drug testing of MOS from CRC core biopsies (Cell Titer Glo); type: cell-based, human; conditions: 1 μM and 10 μM, cut-off 50% killing
Protocol: as §1
A prospective clinical study was then designed and conducted. Core biopsies (18-gauge) were obtained from seven additional patients presenting with metastatic CRC, MOS were generated, and drug testing was performed (FIGS. 1H and 1I). MOS (30 tumor cells per MOS) were generated and responses to oxaliplatin were tested within 13 days (9.9 days on average) from time of biopsy for all eight biopsy samples, with a success rate of 100% (8/8) (TABLE 2). Given the limited tissue volume, dosages of 1 μM and 10 μM were selected based on studies disclosed elsewhere (Vlachogiannis et al., Science 359, 920-926, 2018, Ooft et al., Science Translational Med 11, 2019; Ganesh et al., Nat Med 25, 1607-1614, 2019; and Yao et al., Trends Immunol 41, 652-664, 2020). The same cut-off as measured via Cell Titer Glo was used. Among the eight patients, four had oxaliplatin-sensitive MOS and four had oxaliplatin-resistant MOS (FIG. 1J).

[5] = test system: CRC MOS lines resistant to oxaliplatin; test: Caspase 3/7 fluorescence imaging of oxaliplatin-treated CRC MOS; type: cell-based, human; conditions: two oxaliplatin-resistant CRC MOS lines (CRC1282, CRC1297), 20 cells per MOS
Protocol: Cell death for each MOS was measured by imaging the Caspase 3/7 fluorescence signal and normalizing it by the cell surface area inside each MOS.

CCc1c2c(nc3ccc(OC(=O)N4CCC(N5CCCCC5)CC4)cc13)-c1cc3c(c(=O)n1C2)COC(=O)[C@]3(O)CC [irinotecan]
% killing [1]: < 50%

nivolumab
death of tumorspheres within MOS (Annexin V) [2]: induced death in the tumorspheres
TIL-mediated killing inside MOS (Annexin V) (lung tumor MOS; 10 μg/mL with autologous TILs, effector:target 5:1): enhanced TIL-mediated killing
TIL-mediated killing inside MOS (Annexin V) with MHC block (lung tumor MOS; anti-MHC I/II antibodies 20 μg/mL, autologous TILs): abrogated
killing of tumorspheres inside MOS (Annexin V) [3]: did not enhance killing

O=C1[O][Pt]2([NH][C@@H]3CCCC[C@H]3[NH]2)[O]C1=O [oxaliplatin]
patient tumor response to oxaliplatin-based therapy (metastatic CRC; metastatic rectal cancer patient, 6 months later): still responded
Clinical Outcome (metastatic CRC; patient CRC-MOS-001, oxaliplatin-based therapy): Response
Response Time (metastatic CRC; patient CRC-MOS-001, time on oxaliplatin-based treatment): 46 wks
Clinical Outcome (metastatic CRC; patient CRC-MOS-002, oxaliplatin-based therapy): Response
Response Time (metastatic CRC; patient CRC-MOS-002, time on oxaliplatin-based treatment): 28 wks
Clinical Outcome (metastatic CRC; patient CRC-MOS-003, oxaliplatin-based therapy): Response
Response Time (metastatic CRC; patient CRC-MOS-003, time on oxaliplatin-based treatment): 38 wks
Clinical Outcome (metastatic CRC; patient CRC-MOS-004, oxaliplatin-based therapy): No Response
Response Time (metastatic CRC; patient CRC-MOS-004, time on oxaliplatin-based treatment): 8 wks
Clinical Outcome (metastatic CRC; patient CRC-MOS-005, oxaliplatin-based therapy): Response
Response Time (metastatic CRC; patient CRC-MOS-005, time on oxaliplatin-based treatment): 36 wks
Clinical Outcome (metastatic CRC; patient CRC-MOS-006, oxaliplatin-based therapy): No Response
Response Time (metastatic CRC; patient CRC-MOS-006, time on oxaliplatin-based treatment): 3 wks
Clinical Outcome (metastatic CRC; patient CRC-MOS-007, oxaliplatin-based therapy): No Response
Response Time (metastatic CRC; patient CRC-MOS-007, time on oxaliplatin-based treatment): 24 wks
Clinical Outcome (metastatic CRC; patient CRC-MOS-008, oxaliplatin-based therapy): No Response
Response Time (metastatic CRC; patient CRC-MOS-008, time on oxaliplatin-based treatment): 6 wks
MOS Prediction ([4]; patient CRC-MOS-001): Sensitive
MOS Prediction ([4]; patient CRC-MOS-002): Resistance
MOS Prediction ([4]; patient CRC-MOS-003): Sensitive
MOS Prediction ([4]; patient CRC-MOS-004): Resistance
MOS Prediction ([4]; patient CRC-MOS-005): Sensitive
MOS Prediction ([4]; patient CRC-MOS-006): Resistance
MOS Prediction ([4]; patient CRC-MOS-007): Sensitive
MOS Prediction ([4]; patient CRC-MOS-008): Resistance
cell killing, Caspase 3/7 signal normalized by cell surface area [5]: only the highest dosages induced significant cell killing
% killing [1]: > 50%
